According to publication PMC8125762, “Molecular Regulation of Betulinic Acid on α3β4 Nicotinic Acetylcholine Receptors” (Molecules, 2021):
“And” between values parts separate entries of the source, which are not always exact repeats. Equal entries are not always repeated.

Experiments:
[1] = target: T1, bovine α3β4 nicotinic acetylcholine receptors (Bos taurus, UniProt Q07263+Q8SPU6); test: Two-electrode voltage clamp of ACh-induced inward current (IACh), wild-type α3β4 nAChRs expressed in Xenopus oocytes; type: cell-based; conditions: for IC50: read-out: IC50 (half-maximal inhibitory response concentration)
T1 construct: host or cells: Xenopus laevis oocytes injected with in vitro transcribed mRNA
T1 sequence (Q07263 22-495): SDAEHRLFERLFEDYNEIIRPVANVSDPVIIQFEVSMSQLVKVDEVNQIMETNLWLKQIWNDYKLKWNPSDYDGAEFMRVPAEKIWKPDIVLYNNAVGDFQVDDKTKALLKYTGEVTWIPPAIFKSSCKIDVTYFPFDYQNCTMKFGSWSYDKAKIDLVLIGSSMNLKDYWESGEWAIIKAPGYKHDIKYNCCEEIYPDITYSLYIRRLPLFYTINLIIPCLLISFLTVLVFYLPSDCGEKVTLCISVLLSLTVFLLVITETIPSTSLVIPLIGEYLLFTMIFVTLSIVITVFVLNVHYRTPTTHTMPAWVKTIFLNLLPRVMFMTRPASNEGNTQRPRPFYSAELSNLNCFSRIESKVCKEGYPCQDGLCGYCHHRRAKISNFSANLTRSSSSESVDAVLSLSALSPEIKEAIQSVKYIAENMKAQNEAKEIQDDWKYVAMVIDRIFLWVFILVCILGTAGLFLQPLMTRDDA
T1 sequence (Q8SPU6 20-496): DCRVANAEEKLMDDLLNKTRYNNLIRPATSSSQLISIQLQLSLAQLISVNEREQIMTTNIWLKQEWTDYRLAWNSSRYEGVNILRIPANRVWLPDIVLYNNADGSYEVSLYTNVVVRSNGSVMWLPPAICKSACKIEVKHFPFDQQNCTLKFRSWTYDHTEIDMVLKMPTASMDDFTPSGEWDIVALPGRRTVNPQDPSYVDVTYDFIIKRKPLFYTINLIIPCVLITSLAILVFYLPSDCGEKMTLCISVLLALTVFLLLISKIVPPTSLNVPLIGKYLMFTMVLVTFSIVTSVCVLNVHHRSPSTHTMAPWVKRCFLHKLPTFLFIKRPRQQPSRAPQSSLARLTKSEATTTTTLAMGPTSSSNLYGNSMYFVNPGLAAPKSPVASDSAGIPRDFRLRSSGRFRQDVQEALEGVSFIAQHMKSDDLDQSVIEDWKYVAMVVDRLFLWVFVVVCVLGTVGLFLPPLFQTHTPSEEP
Method: (§1) Bovine cholinergic receptor nicotinic α3 subunit (gene accession number: 282702) and β4 subunit (gene accession number: 282181) were obtained from OriGene (Rockville, State Abbr. USA). All reagents, including ACh, MEC, and BA, were purchased from Sigma-Aldrich (St. Louis, MO, USA). All reagent stocks used in electrophysiological experiments were dissolved in dimethyl sulfoxide (DMSO) with the final concentration of DMSO not exceeding 0.01%. Frogs (Xenopus laevis) used in these experiments were obtained from the Korean Xenopus Resource Center for Research (KXRCR000001) and used according to appropriate standards.
(§2) All experiments were performed according to appropriate standards. After anesthetizing frogs on ice preoperatively, oocytes were extracted. Outer layers of oocytes were removed with OR-2 (Oocyte Ringer 2 solution) (82.5 mM NaCl, 2 mM KCl, 1 mM MgCl2, 5 mM HEPES, pH 7.4) containing collagenase II (2 mg/mL) in a room temperature shaker. Only stage V–VI oocytes were selected and used in this study. These oocytes were incubated in ND96 incubation buffer ([…] NaCl, 2 mM KCl, 1 mM MgCl2, 1.8 mM CaCl2, 5 mM HEPES, 2.5 mM sodium pyruvate, and […] gentamycin, pH 7.4) at 18 °C prior to mRNA injection.
(§3) Bovine α3β4 nAChRs cDNAs were restricted using appropriate restriction sites. Bovine α3β4 nAChRs mRNA was then subjected to in vitro transcription using a T7 polymerase kit (mMESSAGE mMACHINE T7 Transcription Kit; Thermo Fisher Scientific, Waltham, MA, USA) followed by injection into oocytes. A glass needle filled with mineral oil was used to install onto a nanoinjector (Drummond Scientific, Broomall, PA, USA). After incubating for 1–3 days, mRNA-injected oocytes were used for electrophysiology experiments.
Two-electrode voltage clamp (TEVC) experiments were performed using oocytes infused with α3β4 nAChR mRNA and cultured according to appropriate criteria. Each oocyte was penetrated with a microelectrode filled with 3M KCl at a resistance of 0.2 MΩ. All experiments were performed at room temperature using a two-electrode voltage clamp (OC-725C; Warner Instruments, Hamden, CT, USA) with a Digidata 1322A. The holding potential of the oocyte membrane potential was −80 mV. ACh and BA used in the experiment were diluted with ND96 buffer to appropriate concentrations. The perfusion rate was about 2 mL per minute. The induced-inward current was converted to digital data with the pClamp 10 software (Axon Instruments, Union City, CA, USA) for further analysis.
The current-voltage relationship was measured by changing the holding potential using a ramp protocol. Voltages ranging from −100 mV to +60 mV were applied to injected oocytes to measure the voltage ramp trace. The values were converted using Clampfit 9.0 (Molecular Devices, San Jose, CA, USA).
Concentration-response curve data were analyzed using SigmaPlot 10.0 software. Equation data were obtained using OriginPro 9.0 software (Origin, MA, USA) and fitted using the Hill equation y = Vmin + (Vmax − Vmin)*[x]^n/([IC50]^n + [x]^n), where Vmax and Vmin were the maximum and minimum current, respectively, x was the concentration of ACh or BA, n was the coefficient of interaction, and IC50 was the concentration of BA that produced half the maximum inhibitory effect. p-values < 0.05 were considered statistically significant.

[2] = target: T2, α3 (L257A) + β4 (I263A) nicotinic acetylcholine receptor (Bos taurus, UniProt Q07263+Q8SPU6, I284A/L278A); test: Two-electrode voltage clamp, double-mutant α3 (L257A) + β4 (I263A) nAChR in Xenopus oocytes; type: cell-based, bovine; conditions: 100 μM ACh, holding potential −80 mV
T2 construct: host or cells: Xenopus laevis oocytes injected with mRNA; mutants made by site-directed mutagenesis
T2 sequence (Q07263 22-495 L278A): as the sequence (Q07263 22-495) above, with L257A counted along it
T2 sequence (Q8SPU6 20-496 I284A): as the sequence (Q8SPU6 20-496) above, with I265A counted along it
Method: as §1, §2, §3
(§4) Using α3 and β4 subunit cDNAs, point mutation was performed by PCR with Pfu DNA polymerase (Quikchange II Site-Directed Mutagenesis Kit). After designing a chimeric primer for mutation, optimal PCR conditions were determined. DpnI was added to remove methylated cDNA. […]
(§5) Concentration-response curve data were analyzed using SigmaPlot 10.0 software. […]

[3] = target: T3, α3 (L257A) + Wild β4 nicotinic acetylcholine receptor (Bos taurus, UniProt Q07263+Q8SPU6, L278A); test: Two-electrode voltage clamp, single-mutant α3 (L257A) + wild β4 nAChR in Xenopus oocytes; type: cell-based, bovine; conditions: 100 μM ACh, holding potential −80 mV
T3 construct: host or cells: Xenopus laevis oocytes injected with mRNA; mutant made by site-directed mutagenesis
T3 sequence (Q07263 22-495 L278A): as the sequence (Q07263 22-495) above, with L257A counted along it
T3 sequence (Q8SPU6 20-496, stated change not applied): as the sequence (Q8SPU6 20-496) above
Method: as §1, §2, §3, §4, §5

[4] = target: T4, Wild α3 + β4 (I263A) nicotinic acetylcholine receptor (Bos taurus, UniProt Q07263+Q8SPU6, I284A); test: Two-electrode voltage clamp, single-mutant wild α3 + β4 (I263A) nAChR in Xenopus oocytes; type: cell-based, bovine; conditions: 100 μM ACh, holding potential −80 mV
T4 construct: host or cells: Xenopus laevis oocytes injected with mRNA; mutant made by site-directed mutagenesis
T4 sequence (Q07263 22-495, stated change not applied): as the sequence (Q07263 22-495) above
T4 sequence (Q8SPU6 20-496 I284A): as the sequence (Q8SPU6 20-496) above, with I265A counted along it
Method: as §1, §2, §3, §4, §5

[5] = wild-type, co-applied with 100 μM ACh, holding potential −80 mV

| IC50 [2] [µM] | Imax [2] [%] | nH (Hill coefficient) [2] | IC50 [3] [µM] | Imax [3] [%] | nH (Hill coefficient) [3] | decrease of efficacy of acetylcholine-induced inward current ([1]; 10 μM BA compared to 0 μM BA) | reversible potential (current-voltage relationship) ([1]; ACh 100 μM and BA co-administered, voltage ramp −100 to +60 mV) | reversibility of inhibition ([1]; ACh added again after BA co-administration) | inhibition percentage of nAChRs ([1]; BA 100 μM co-applied with 100 μM ACh, holding potential −80 mV) [%] | manner of inhibition versus ACh ([1]; different ACh concentrations with fixed BA 3 μM or 10 μM) | Hill coefficient (nH) [1, 5] | Imax [1, 5] | IC50 [1, 5] | IC50 [4] | Imax [4] [%] | nH (Hill coefficient) [4] | inhibition at 10 µM ([1]; MEC 10 μM added at the same time as 100 μM ACh, holding potential −80 mV, read-out: inhibition of IACh (acetylcholine-induced inward peak current)) [%] | Structure (SMILES) | EC50 ([1]; in the absence of BA, holding potential −80 mV) [µM] | Emax ([1]; read-out: maximum efficacy of ACh-induced inward current (Emax)) [%] |
| --- | --- | --- | --- | --- | --- | --- | --- | --- | --- | --- | --- | --- | --- | --- | --- | --- | --- | --- | --- | --- |
| – | – | – | – | – | – | – | – | – | – | – | – | – | – | – | – | – | – | CC(=O)OCC[N+](C)(C)C [ACh, acetylcholine] | 9.4 ± 1.25 | 101 ± 1.47 |
| ~26.2 | 7.4 | 2 | 18.6 | 48.9 ± 2.7 | 1.6 ± 0.1 | about 60% | about −10 mV | reversible | 89.2 ± 8.2 | non-competitive | 0.9 ± 0.1 | 101.59 ± 5.98% and 101.5 ± 5.9% | 12.9 µM and 12.8 µM | ~13.4 µM and 13.4 µM | 33.1 ± 3.3 | 2.7 ± 1.0 | – | C=C(C)[C@@H]1CC[C@]2(C(=O)O)CC[C@]3(C)[C@H](CC[C@@H]4[C@@]5(C)CC[C@H](O)C(C)(C)[C@@H]5CC[C@]43C)[C@@H]12 [BA, 3β, hydroxy-lup-20 (29) -en-28-oic acid] | – | – |
| – | – | – | – | – | – | – | – | – | – | – | 1.5 ± 0.1 | – | 1.5 µM | – | – | – | ~100 | CNC1(C)C2CCC(C2)C1(C)C (stereo not shown) [MEC, mecamylamine, reference compound] | – | – |
